Results: ChEMBL document CHEMBL4184108, “Bistachybotrysins A-C, three phenylspirodrimane dimers with cytotoxicity from Stachybotrys chartarum” (Bioorg Med Chem Lett, 2018)

Key:
Format in all cases: functional, cell-based
HCT-116 = test: Cytotoxicity against human HCT116 cells after 96 hrs by MTT assay; details: HCT-116, 96 h
NCI-H460 = test: Cytotoxicity against human NCI-H460 cells after 96 hrs by MTT assay; details: NCI-H460, 96 h
BGC-823 = test: Cytotoxicity against human BGC823 cells after 96 hrs by MTT assay; details: BGC-823, 96 h
Daoy = test: Cytotoxicity against human DaOY cells after 96 hrs by MTT assay
HepG2 = test: Cytotoxicity against human HepG2 cells after 96 hrs by MTT assay; details: HepG2, 96 h

SMILES	IC50 (HCT-116)	IC50 (NCI-H460)	IC50 (BGC-823)	IC50 (Daoy)	IC50 (HepG2)
CC(=O)O[C@@H]1[C@H](O)C[C@@]2(C)[C@@H](CC[C@@H](C)[C@]23Cc2c(O)cc4c(c2O3)C[C@H]2OCc3cc(O)c5c(c3[C@H](O2)[C@H]4O)O[C@]2(C5)[C@H](C)CC[C@H]3C(C)(C)[C@H](O)CC[C@@]32C)C1(C)C	18 µM	5.5 µM	6.6 µM	4.2 µM	19.3 µM
C[C@@H]1CC[C@H]2C(C)(C)[C@H](O)CC[C@]2(C)[C@@]12Cc1c(O)cc3c(c1O2)[C@@H]1O[C@@H](Cc2c(cc(O)c4c2O[C@]2(C4)[C@H](C)CC[C@H]4C(C)(C)[C@H](O)[C@H](O)C[C@@]42C)[C@@H]1O)OC3	6.7 µM	7.5 µM	14.2 µM	2.8 µM	11.9 µM
C[C@@H]1CC[C@H]2C(C)(C)[C@H](O)[C@H](O)C[C@]2(C)[C@@]12Cc1c(O)cc3c(c1O2)C[C@H]1OCc2cc(O)c4c(c2[C@H](O1)[C@H]3O)O[C@]1(C4)[C@H](C)CC[C@H]2C(C)(C)[C@H](O)[C@H](O)C[C@@]21C	19.1 µM	12.3 µM	19.2 µM	14.6 µM	19.3 µM
CC(=O)O[C@H]1C(=O)[C@@]2(C)[C@H]([C@H](OC(=O)c3ccccc3)[C@]3(O)C[C@H](OC(=O)[C@H](O)[C@@H](NC(=O)c4ccccc4)c4ccccc4)C(C)=C1C3(C)C)[C@]1(OC(C)=O)CO[C@@H]1C[C@@H]2O [PACLITAXEL]	0.038 µM	0.004 µM	0.002 µM	0.002 µM	0.0102 µM
